Results reported in patent US12565501B2, “Muscarinic acetylcholine M1 receptor antagonists” (Contineum Therapeutics, Inc., priority 2019, dated 2026).

biological target: T1, human M1 receptor (Homo sapiens, UniProt P11229); experiment: In vitro functional assay of muscarinic acetylcholine receptor activity (aequorin calcium flux, reversal of EC80 acetylcholine response); format: cell-based; details: CHO-K1 cells stably expressing human M1 receptor with aequorin; acetylcholine at EC80; calcium flux (luminescence); read-out: M1 IC50
T1 sequence (P11229 1-460): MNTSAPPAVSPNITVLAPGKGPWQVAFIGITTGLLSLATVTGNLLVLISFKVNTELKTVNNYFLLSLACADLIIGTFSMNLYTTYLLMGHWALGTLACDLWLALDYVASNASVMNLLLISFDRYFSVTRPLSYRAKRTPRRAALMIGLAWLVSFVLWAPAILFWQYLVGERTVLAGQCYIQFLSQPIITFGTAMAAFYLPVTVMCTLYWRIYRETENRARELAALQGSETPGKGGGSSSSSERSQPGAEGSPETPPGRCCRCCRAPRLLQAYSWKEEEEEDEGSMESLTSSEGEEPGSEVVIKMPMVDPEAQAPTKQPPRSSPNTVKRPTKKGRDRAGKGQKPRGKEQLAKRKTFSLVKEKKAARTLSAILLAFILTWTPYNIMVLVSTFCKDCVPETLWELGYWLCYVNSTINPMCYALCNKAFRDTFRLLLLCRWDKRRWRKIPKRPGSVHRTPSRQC
Procedure: CHO-K1 cells stably expressing human M1 receptor with aequorin (Perkin Elmer) were grown in F12 media (Gibco) containing 10% FBS (ATCC), 0.4 mg/mL geneticin (Sigma-Aldrich) and 0.25 mg/mL Zeocin (Invitrogen). Cells were grown as per the manufacturer's protocol. For compound testing, cells were grown to confluency and detached gently with Accutase (Sigma-Aldrich) followed by centrifugation for 5 min at 150× g. Cells were then re-suspended in assay buffer (i.e. DMEM/F-12 HEPES without phenol red (Invitrogen) with 0.1% BSA (Sigma-Aldrich)) at a density of 5×10^6 cells/ml. Under sterile conditions, 5 μM coelenterazine (Invitrogen) was added to the cells, mixed, then incubated at room temperature protected from light, with gentle agitation, for 4 h.
Primary compound plates were prepared in 100% DMSO in opaque 96-well plates (VWR) and serially diluted in half log increments. Secondary compound plates were prepared at 3× concentration in assay buffer. Compounds were added to white, clear bottom tissue culture treated 96-well plates (Fisher Scientific). Coelenterazine-loaded cells were then added at 5×10^5 cells/well.
Compounds and cells were incubated at room temperature for 30 min in the dark. Acetylcholine at the EC80 concentration was added and calcium flux measured using a FlexStation 3 (Molecular Devices). Sigmoidal dose-response curves were generated by measuring luminescence over 40 sec and calculating the area under the curve. Dose response curves and IC50 values were generated using Prism (GraphPad). Compounds were tested at a final concentration range of 100 μM to […] in 0.1% DMSO.

Compound | IC50 [nM]
COc1cnc2cccc(C(C)NCCC(=O)N3C[C@H]4CC[C@@H](C3)N4c3ccc(C#N)cn3)c2c1 (mixture of isomers) [Example 50, 6-(3-(3-((1-(3-methoxyquinolin-5-yl)ethyl)amino)propanoyl)-3,8-diazabicyclo[3.2.1]octan-8-yl)nicotinonitrile] | < 10
N#Cc1ccc(N2C3CCC2CN(C(=O)CNC2(c4ccc(F)cn4)CC2)C3)nc1 [Example 69, 6-(3-((1-(5-fluoropyridin-2-yl)cyclopropyl)glycyl)-3,8-diazabicyclo[3.2.1]octan-8-yl)nicotinonitrile] | 100 to 1000
N#Cc1ccc(N2[C@@H]3CC[C@H]2CN(C(=O)CCNC2(c4ccc(F)c(Br)c4)CC2)C3)nc1 [Example 11, 6-(3-(3-((1-(3-bromo-4-fluorophenyl)cyclopropyl)amino)propanoyl)-3,8-diazabicyclo[3.2.1]octan-8-yl)nicotinonitrile] | < 10
N#Cc1ccc(N2[C@@H]3CC[C@H]2CN(C(=O)CCNC2(c4cc(Cl)cc(Br)c4)CC2)C3)nc1 [Example 12, 6-(3-(3-((1-(3-bromo-5-chlorophenyl)cyclopropyl)amino)propanoyl)-3,8-diazabicyclo[3.2.1]octan-8-yl)nicotinonitrile] | 100 to 1000
N#Cc1ccc(N2C3CCC2CN(C(=O)COC2(c4ccccc4)CC2)C3)nc1 [Example 180, 6-(3-(2-(1-phenylcyclopropoxy)acetyl)-3,8-diazabicyclo[3.2.1]octan-8-yl)nicotinonitrile] | 10 to 100
N#Cc1ccc(N2C3CCC2CN(C(=O)COC2(c4ccncc4F)CC2)C3)nc1 [Example 228, 6-(3-(2-(1-(3-fluoropyridin-4-yl)cyclopropoxy)acetyl)-3,8-diazabicyclo[3.2.1]octan-8-yl)nicotinonitrile] | 10 to 100
N#Cc1ccc(N2C[C@@H]3C[C@H]2CN3C(=O)CNC2(c3ccc(F)cc3F)CC2)nc1 [Example 82, 6-((1S,4S)-5-((1-(2,4-difluorophenyl)cyclopropyl)glycyl)-2,5-diazabicyclo[2.2.1]heptan-2-yl)nicotinonitrile] | > 1000
CC(SCC(=O)N1CC2CCC(C1)N2c1ccc(C#N)cn1)c1ccccc1 (racemic) [Example 132, 6-(3-(2-((1-phenylethyl)thio)acetyl)-3,8-diazabicyclo[3.2.1]octan-8-yl)nicotinonitrile] | < 10
Cc1noc(C)c1C(C)OCC(=O)N1CC2CCC(C1)N2c1ccc(C#N)cn1 (racemic) [Example 197, 6-(3-(2-(1-(3,5-dimethylisoxazol-4-yl)ethoxy)acetyl)-3,8-diazabicyclo[3.2.1]octan-8-yl)nicotinonitrile] | < 10
COc1c(F)cccc1C1(NCC(=O)N2CC3CCC(C2)N3c2ccc(C#N)cn2)CC1 [Example 77, 6-(3-((1-(3-fluoro-2-methoxyphenyl)cyclopropyl)glycyl)-3,8-diazabicyclo[3.2.1]octan-8-yl)nicotinonitrile] | < 10
N#Cc1ccc(N2C3CCC2CN(C(=O)CN2CC(c4ccc(F)cc4)C2)C3)nc1 [Example 105, 6-(3-(2-(3-(4-fluorophenyl)azetidin-1-yl)acetyl)-3,8-diazabicyclo[3.2.1]octan-8-yl)nicotinonitrile] | > 1000
N#Cc1ccc(N2C3CCC2CN(C(=O)COC2(c4cccc(C#N)c4F)CC2)C3)nc1 [Example 290, 6-(3-(2-(1-(3-cyano-2-fluorophenyl)cyclopropoxy)acetyl)-3,8-diazabicyclo[3.2.1]octan-8-yl)nicotinonitrile] | 1000 to 10000
C[C@H](OCC(=O)N1C[C@H]2CC[C@@H](C1)N2c1ccc(C#N)cn1)c1ccc(F)c(F)c1 [Example 182, 6-(3-(2-((S)-1-(3,4-difluorophenyl)ethoxy)acetyl)-3,8-diazabicyclo[3.2.1]octan-8-yl)nicotinonitrile] | 10 to 100
CC(NCCC(=O)N1CC2CCC(C1)N2c1ccc(C#N)cn1)c1cccc2ncccc12 (racemic) [Example 48, 6-(3-(3-((1-(quinolin-5-yl)ethyl)amino)propanoyl)-3,8-diazabicyclo[3.2.1]octan-8-yl)nicotinonitrile] | < 10
Cc1ccc(N2C3CCC2CN(C(=O)CNC2(c4ccc(F)cc4F)CC2)C3)nn1 [Example 86, 2-((1-(2,4-difluorophenyl)cyclopropyl)amino)-1-(8-(6-methylpyridazin-3-yl)-3,8-diazabicyclo[3.2.1]octan-3-yl)ethan-1-one] | 1000 to 10000
N#Cc1ccc(N2C3CCC2CN(C(=O)CNC(c2ccc(F)cc2F)C(F)F)C3)nc1 (racemic) [Example 128, 6-(3-((1-(2.4-difluorophenyl)-2,2-difluoroethyl)glycyl)-3,8-diazabicyclo[3.2.1]octan-8-yl)nicotinonitrile] | 10 to 100
N#Cc1ccc(N2C3CCC2CN(C(=O)COC(c2cccc4ncccc24)C(F)F)C3)nc1 (racemic) [Example 199, 6-(3-(2-(2,2-difluoro-1-(quinolin-5-yl)ethoxy)acetyl)-3,8-diazabicyclo[3.2.1]octan-8-yl)nicotinonitrile] | < 10
CC(c1ccccc1Br)S(=O)(=O)CCC(=O)N1CC2CCC(C1)N2c1ccc(C#N)cn1 (racemic) [Example 176, 6-(3-(3-((1-(2-bromophenyl)ethyl)sulfonyl)propanoyl)-3,8-diazabicyclo[3.2.1]octan-8-yl) nicotinonitrile] | 1000 to 10000
N#Cc1ccc(N2[C@@H]3CC[C@H]2CN(C(=O)CCN2CCC2c2ccc(F)cc2)C3)nc1 (mixture of isomers) [Example 23, 6-(3-(3-(2-(4-fluorophenyl)azetidin-1-yl)propanoyl)-3,8-diazabicyclo[3.2.1]octan-8-yl)nicotinonitrile] | 1000 to 10000
C[C@H](COCC(=O)N1CC2CCC(C1)N2c1ccc(C#N)cn1)c1ccccc1 [Example 186, 6-(3-(2-((S)-2-phenylpropoxy)acetyl)-3,8-diazabicyclo[3.2.1]octan-8-yl)nicotinonitrile] | 1000 to 10000
[2H]C([2H])([2H])Oc1cc(C(F)(F)CCC(=O)N2CC3CCC(C2)N3c2ccc(C#N)cn2)ccn1 [Example 165, 6-(3-(4,4-difluoro-4-(2-(methoxy-d3)pyridin-4-yl)butanoyl)-3,8-diazabicyclo[3.2.1]octan-8-yl)nicotinonitrile] | 10 to 100
COc1cccc(C2(NCC(=O)N3CC4CCC(C3)N4c3ccc(C#N)cn3)CC2)c1F [Example 103, 6-(3-((1-(2-fluoro-3-methoxyphenyl)cyclopropyl)glycyl)-3,8-diazabicyclo[3.2.1]octan-8-yl)nicotinonitrile] | 10 to 100
COc1cccc(C2(NCC(=O)N3CC4CCC(C3)N4c3ccc(C#N)cn3)CC2)c1 [Example 98] | < 10
COc1cc([C@@H](C)NCCC(=O)N2C[C@H]3CC[C@@H](C2)N3c2ccc(C#N)cn2)ccn1 [Example 21, 6-(3-(3-(((R)-1-(2-methoxypyridin-4-yl)ethyl)amino)propanoyl)-3,8-diazabicyclo[3.2.1]octan-8-yl)nicotinonitrile] | 100 to 1000
CC(NCC(=O)N1CC2CCC(C1)N2c1ccc(C#N)cn1)c1cccc2ncnn12 (racemic) [Example 54, 6-(3-((1-([1,2,4]triazolo[1,5-a]pyridin-5-yl)ethyl)glycyl)-3,8-diazabicyclo[3.2.1]octan-8-yl)nicotinonitrile] | 10 to 100
C[C@H](NCCC(=O)N1C[C@H]2CC[C@@H](C1)N2c1ccc(C#N)cn1)c1ccc(F)cc1 [Example 6, 6-(3-(3-(((S)-1-(4-fluorophenyl)ethyl)amino)propanoyl)-3,8-diazabicyclo[3.2.1]octan-8-yl)nicotinonitrile] | 1000 to 10000
COc1cc(C2(CCC(=O)N3CC4CCC(C3)N4c3ccc(C#N)cn3)CCC2)ccn1 [Example 164, 6-(3-(3-(1-(2-methoxypyridin-4-yl)cyclobutyl)propanoyl)-3,8-diazabicyclo[3.2.1]octan-8-yl)nicotinonitrile] | < 10
N#Cc1ccc(N2[C@@H]3CC[C@H]2CN(C(=O)/C=C/C(F)(F)c2cccc4nccnc24)C3)nc1 [Example 125, 6-(3-((E)-4,4-difluoro-4-(quinoxalin-5-yl)but-2-enoyl)-3,8-diazabicyclo[3.2.1]octan-8-yl)nicotinonitrile] | < 10
CC(c1ccccc1)[S+]([O-])CCC(=O)N1CC2CCC(C1)N2c1ccc(C#N)cn1 (racemic) [Example 169, 6-(3-(3-((1-phenylethyl)sulfinyl)propanoyl)-3,8-diazabicyclo[3.2.1]octan-8-yl)nicotinonitrile] | 1000 to 10000
